Series [1] can be described thus: Acid sensitivity (degradation under slightly acidic conditions). Type of series: physicochemical. From the text:
Examples of compounds are known in the art and may be ascertained by routine experimentation.
(§1) which is referred hereinafter as Compound A, or a pharmaceutically acceptable salt form thereof, e.g., the hydrogen maleate (hereinafter “hml”) salt.

Series [2] relates to sensory perception of rectal distension. Nature of the series: Colonic perfusion manometry with balloon distension, sensation threshold in fasted healthy volunteers. The series is classed as in vivo. To be noted: 2-12 mg p.o., assessed 30 to 90 min after dosing. The procedure: Intraluminal pressures and reflexes in the last 60 cm of the colon of 10 fasted healthy volunteers are measured by means of perfusion manometry. Three latex balloons positioned at 50, 30 and 10 cm, allow volume stimulation. Basal values of colonic intraluminal pressures and reflexes are established. Subsequently, reflex inhibitory relaxations of the internal anal sphincter is triggered by inflating the balloons by 10 ml increments up to a maximum volume of 150 ml. During the inflation phase, two parameters are evaluated: a) the reflux threshold (volume able to induce a substantial pressure decrease of the internal anal sphincter); and b) the sensation threshold (volume able to induce a conscious defecation reflex). After the basal recordings, each subject is given a 5-HT4 receptor agonist, partial agonist or antagonist, e.g., Compound A, p.o. and 30 to 90 min later the colonic intraluminal pressure and reflexes are assessed again by the same method.

The nature of series [3]: Dissolution characteristics of oral tablet composition in water or USP buffers pH 6.8 and 7.5. The series is classed as physicochemical. To be noted: composition comprising Tegaserod. From the text: In a further aspect the present invention provides a pharmaceutical oral, e.g., tablet, composition comprising one of the active agents cited above, e.g., a 5-HT4 agonist, partial agonist or antagonist, e.g., Tegaserod, said composition having dissolution characteristics in water or in USP buffers pH 6.8 and 7.5 of
For example a composition according to the invention, e.g., comprising Tegaserod as the active agent, may have dissolution characteristics in water or in USP buffers pH 6.8 and 7.5 of: […]

The subject of series [4] is equine intestine. Description: Gastro-intestinal motility after colic surgery (post-operative ileus) in horses. The series is classed as in vivo. Particulars: i.v. or i.m., 0.01 to 10 mg/kg every 8 to 24 h. The protocol:
20 horses having colic syndrome are submitted to abdominal surgery. During surgery supportive therapy is applied to them. At the end of surgery, a specific 5-HT4 receptor agonist or partial agonist, e.g., Compound A, is administered i.v. or i.m., e.g. at a dose of from 0.01 to 10 mg/kg. This dose is repeated every 8 to 24 h until spontaneous defecation is observed. Gastro-intestinal motility is evaluated based e.g. on the presence or absence of gastric reflux as determined by nasogastric intubation, occurrence of borborygmi and timing of defecation after the first injection of the test compound.

The subject of series [5] is rectal afferents. Description: Single unit activity of rectal afferent fibres during barostat-controlled rectal distension in decerebrate cats. The series is classed as in vivo. Particulars: i.v., incremental doses from 0.15 to 1.2 mg/kg. The protocol:
Decerebrate, anaesthesia-free cats under continuous monitoring of blood pressure are paralysed by alcuronium chloride dissolved in rheomacrodex i.v. (200 μg/kg initially and supplementary doses of 100 μg/kg, if necessary), and artificially ventilated. Single unit activity of afferent fibres are recorded in a monopolar fashion from peripheral endings of centrally cut filaments of sacral dorsal roots. Tension receptors are identified by probing of their receptive fields in the wall of the mobilised rectum. Thereafter, the response of the units to barostat-controlled rectal ramp-distension is determined. The quantitative response characteristics of the units is evaluated with respect to distension pressure and resulting rectal diameter. Alternatively, the response of the units to pressure-induced peristalsis is measured. After obtaining 2 distension profiles (5 min each) and/or 10 min of peristalsis under control conditions, a 5-HT4 receptor agonist, partial agonist or antagonist, e.g., Compound A, or vehicle is applied i.v. and the protocol is repeated. Subsequently, the activity of additional units is recorded in the presence of a 5-HT4 receptor agonist, partial agonist or antagonist, e.g., Compound A, or vehicle according to the distension/peristalsis protocol. […]

Series [6] is described as follows: Solubility in water. The series is classed as physicochemical. To be noted: at 25° C. in water. The procedure:
By “poorly soluble” is meant an active agent having a solubility in aqueous media more than 0.001% and less than 10%, e.g., less than 1%, e.g., less than 0:1%, e.g., less than 0.05%, e.g., less than 0.02%, at room temperature, e.g., 25° C.
as §1

SMILES strings stand for the structures.

Consider `CCCCCNC(=N)NN=Cc1c[nH]c2ccc(OC)cc12` [Compound A, 3-(5-methoxy-1H-indol-3-yl-methylene)-N-pentylcarbazimidamide], for which the acid sensitivity result in series [1] was “acid sensitive”. Moreover, the “sensation threshold (volume able to induce a conscious defecation reflex)” value in series [2] is “significantly reduced”. Moreover, the “amount (percentage) dissolved” value is 48.9 percentage in series [3] (time 5 minutes), 95.5 percentage in series [3] (time 15 minutes), 99.7 percentage in series [3] (time 30 minutes) and 100 percentage in series [3] (time 60 minutes). For the same compound, the “restoration of normal motility function of the equine intestine” value in series [4] is “effective in restoring normal motility function”. The “distension pressure at which the most prominent inhibition of firing occurs” value in series [5] is 50 mmHg. Moreover, the “dose giving half-maximal reduction of the firing rate of rectal afferents” value in series [5] is listed as “about 0.7 mg/kg”. Further, the solubility result in series [6] is “about 0.02%”.
